Data: patent publication EP0677039B1, “CYCLOBUTANE DERIVATIVES AS INHIBITORS OF […] SYNTHETASE AND PROTEIN […]” (Abbott Laboratories, priority 1993, dated 1995)

The compounds below were run against T1, Rat liver microsomal squalene synthetase (Rattus norvegicus, UniProt Q02769) (assay: In vitro inhibition of squalene synthetase). Conditions: 10 µM test compound; rat liver microsomes, labelled farnesyl pyrophosphate, 10 minutes at 37 °C; compared to controls with no test compound.
T1 construct: Rat liver microsome, the source of enzyme; from tissue; host or cells: rat liver microsomes
T1 sequence (Q02769 1-416): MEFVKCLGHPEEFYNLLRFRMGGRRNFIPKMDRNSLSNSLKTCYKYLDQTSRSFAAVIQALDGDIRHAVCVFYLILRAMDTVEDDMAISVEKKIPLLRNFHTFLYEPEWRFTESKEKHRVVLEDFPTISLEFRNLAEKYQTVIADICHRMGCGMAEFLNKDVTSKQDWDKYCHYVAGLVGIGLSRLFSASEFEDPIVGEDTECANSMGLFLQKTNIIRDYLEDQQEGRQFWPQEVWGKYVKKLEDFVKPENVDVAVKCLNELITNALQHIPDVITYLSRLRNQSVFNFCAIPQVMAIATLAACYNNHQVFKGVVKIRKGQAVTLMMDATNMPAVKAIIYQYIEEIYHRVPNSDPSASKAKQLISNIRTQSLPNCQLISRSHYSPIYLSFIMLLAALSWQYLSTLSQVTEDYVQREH
Format: biochemical
Experimental: In vitro inhibition of squalene synthetase may be measured by the following procedure. Rat liver microsomal squalene synthetase activity was measured using farnesyl pyrophosphate as a substrate and quantitating squalene synthesis using labelled farnesyl pyrophosphate and counting the squalene formed. Rat liver microsome, the source of enzyme, was prepared according to the method of Gillies, P. J., et al., Exp. Molc. Pathol. 44: 329-339 (1986), a modification of the procedure of Erickson, S. K., and Cooper, A. D., Metabolism, 29: 991-996 (1980). […] Oxygen was excluded from the closed incubation tube by degassing with nitrogen. The reaction was terminated by the addition of ethanolic KOH and after degassing with N2, the microsomal membranes were solubilized by heating at 60 °C for 30 minutes. The squalene was extracted into hexane, and the squalene was separated from all other radioactive molecules by passage over an activated alumina column. […] The per cent inhibition at a dose of 10 µM (or 1 µM) compared to controls with no test compound was determined. […]

In order of falling inhibition at 10 µM:
1. C[C@@H](c1ccccc1)N(Cc1ccc(Oc2ccccc2)cc1)C(=O)[C@H]1[C@@H](C(=O)O)[C@H](C(=O)O)[C@@H]1C(=O)N(Cc1ccc(Oc2ccccc2)cc1)[C@@H](C)c1ccccc1 [Example 34]  89%
2. O=C(O)C1C(C(=O)O)C(C(=O)N(Cc2ccc(Oc3ccccc3)cc2)CC2CC2)C1C(=O)N(Cc1ccc(Oc2ccccc2)cc1)CC1CC1 (stereo not drawn) [Example 47B, (1α,2β,3β,4α)-1,2-Di[N-(cyclopropylmethyl)-N-(4-phenoxybenzyl)aminocarbonyl]cyclobutane-3,4-dicarboxylic acid]  87%
3. O=C(O)[C@H]1[C@H](C(=O)O)[C@H](C(=O)N(CCc2ccccc2)Cc2ccc(Oc3ccccc3)cc2)[C@H]1C(=O)N(CCc1ccccc1)Cc1ccc(Oc2ccccc2)cc1 [Example 56, (1α,2β,3β,4α)-1,2-Di[N-(4-phenoxybenzyl)-N-phenethylaminocarbonyl] cyclobutane-3,4-dicarboxylic acid]  86%
4. COCCN(Cc1ccc(Oc2ccccc2)cc1)C(=O)C1C(C(=O)O)C(C(=O)O)C1C(=O)N(CCOC)Cc1ccc(Oc2ccccc2)cc1 (stereo not drawn) [Example 40B, (1α,2β,3β,4α)-1,2-Di[N-(2-methoxyethyl)-N-(4-phenoxybenzyl)aminocarbonyl]cyclobutane-3,4-dicarboxylic acid]  82%
5. COc1ccc(CCN(Cc2ccc(Oc3ccccc3)cc2)C(=O)C2C(C(=O)O)C(C(=O)O)C2C(=O)N(CCc2ccc(OC)c(OC)c2)Cc2ccc(Oc3ccccc3)cc2)cc1OC (stereo not drawn) [Example 55, (1α,2β,3β,4α)-1,2-Di[N-(4-phenoxybenzyl)-N-(3,4-dimethoxyphenethyl)aminocarbonyl]cyclobutane-3,4-dicarboxylic acid]  78%
6. COc1cccc(CCN(Cc2ccc(Oc3ccccc3)cc2)C(=O)C2C(C(=O)O)C(C(=O)O)C2C(=O)N(CCc2cccc(OC)c2)Cc2ccc(Oc3ccccc3)cc2)c1 (stereo not drawn) [Example 54B, (1α,2β,3β,4α)-1,2-Di[N-(4-phenoxybenzyl)-N-(3-methoxyphenethyl)aminocarbonyl]cyclobutane-3,4-dicarboxylic acid]  74%
7. O=C(O)[C@H]1[C@H](C(=O)O)[C@H](C(=O)N(CCCc2ccccc2)Cc2ccc(Oc3ccccc3)cc2)[C@H]1C(=O)N(CCCc1ccccc1)Cc1ccc(Oc2ccccc2)cc1 [Example 57, (1α,2β,3β,4α)-1,2-Di[N-(4-phenoxybenzyl)-N-(3-phenyl-1-propyl)aminocarbonyl]cyclobutane-3,4-dicarboxylic acid]  64%
8. O=C(O)[C@H]1[C@H](C(=O)O)[C@H](C(=O)N(CC=CC=Cc2ccccc2)Cc2ccccc2)[C@H]1C(=O)N(CC=CC=Cc1ccccc1)Cc1ccccc1 [Example 36, (1α,2β,3β,4α)-1,2-Di[N-benzyl-N-(5-phenyl-2,4-pentadienyl)aminocarbonyl]cyclobutane-3,4-dicarboxylic acid]  63%
9. O=C(O)[C@H]1[C@H](C(=O)O)[C@H](C(=O)N(CCCCc2ccccc2)Cc2ccc(Oc3ccccc3)cc2)[C@H]1C(=O)N(CCCCc1ccccc1)Cc1ccc(Oc2ccccc2)cc1 [Example 58, (1α,2β,3β,4α)-1,2-Di[N-(4-phenoxybenzyl)-N-(4-phenyl-1-butyl)aminocarbonyl]cyclobutane-3,4-dicarboxylic acid]  63%
10. CCCN(C(=O)C1C(C(=O)O)C(C(=O)O)C1C(=O)N(CCC)c1ccc(Oc2ccccc2)cc1)c1ccc(Oc2ccccc2)cc1 (stereo not drawn) [Example 39C, (1α,2β,3β,4α)-1,2-Di[N-propyl-N-(4-phenoxyphenyl)aminocarbonyl]cyclobutane-3,4-dicarboxylic acid]  59%
11. CCCN(CCc1ccc(Oc2ccccc2)cc1)C(=O)[C@H]1[C@@H](C(=O)O)[C@H](C(=O)O)[C@@H]1C(=O)N(CCC)CCc1ccc(Oc2ccccc2)cc1 [Example 38H, (1α,2β,3β,4α)-1,2-Di[N-propyl-N-(2-(4-phenoxyphenyl)ethyl)aminocarbonyl]cyclobutane-3,4-dicarboxylic acid]  51%
12. COC(=O)CN(Cc1ccc(Oc2ccccc2)cc1)C(=O)[C@H]1[C@@H](C(=O)O)[C@H](C(=O)O)[C@@H]1C(=O)N(CC(=O)OC)Cc1ccc(Oc2ccccc2)cc1 [Example 59, (1α,2β,3β,4α)-1,2-Di[N-(4-phenoxybenzyl)-N-(methoxycarbonylmethyl)aminocarbonyl]cyclobutane-3,4-dicarboxylic acid]  50%

Same assay, conditions: values marked * in Table 1: 1 µM test compound; rat liver microsomes, labelled farnesyl pyrophosphate, 10 minutes at 37 °C

In order of rising inhibition at 1 µM:
1. O=C(O)C1C(C(=O)O)C(C(=O)N(CCF)Cc2ccc(Oc3ccccc3)cc2)C1C(=O)N(CCF)Cc1ccc(Oc2ccccc2)cc1 (stereo not drawn) [Example 43, (1α,2β,3β,4α)-1,2-Di[N-(2-fluoroethyl)-N-(4-phenoxybenzyl)aminocarbonyl]cyclobutane-3,4-dicarboxylic acid]  47%
2. O=C(O)C1C(C(=O)O)C(C(=O)N(Cc2ccc(Oc3ccccc3)cc2)Cc2cccs2)C1C(=O)N(Cc1ccc(Oc2ccccc2)cc1)Cc1cccs1 (stereo not drawn) [Example 45, (1α,2β,3β,4α)-1,2-Di[N-(thien-2-ylmethyl)-N-(4-phenoxybenzyl)aminocarbonyl]cyclobutane-3,4-dicarboxylic acid]  50%
3. O=C(O)C1C(C(=O)O)C(C(=O)N(Cc2ccc(Oc3ccccc3)cc2)Cc2ccco2)C1C(=O)N(Cc1ccc(Oc2ccccc2)cc1)Cc1ccco1 (stereo not drawn) [Example 44, (1α,2β,3β,4α)-1,2-Di[N-(furan-2-ylmethyl)-N-(4-phenoxybenzyl)aminocarbonyl)cyclobutane-3,4-dicarboxylic acid]  56%
4. C[C@H](c1ccccc1)N(Cc1ccc(Oc2ccccc2)cc1)C(=O)[C@H]1[C@@H](C(=O)O)[C@H](C(=O)O)[C@@H]1C(=O)N(Cc1ccc(Oc2ccccc2)cc1)[C@H](C)c1ccccc1 [Example 35]  59%
5. O=C(O)C1C(C(=O)O)C(C(=O)N(Cc2ccc(F)cc2)Cc2ccc(Oc3ccccc3)cc2)C1C(=O)N(Cc1ccc(F)cc1)Cc1ccc(Oc2ccccc2)cc1 (stereo not drawn) [Example 53B, (1α,2β,3β,4α)-1,2-Di[N-(4-fluorobenzyl)-N-(4-phenoxybenzyl)aminocarbonyl]cyclobutane-3.4-dicarboxylic acid]  63%
6. CCOC(=O)CCN(Cc1ccc(Oc2ccccc2)cc1)C(=O)[C@H]1[C@@H](C(=O)O)[C@H](C(=O)O)[C@@H]1C(=O)N(CCC(=O)OCC)Cc1ccc(Oc2ccccc2)cc1 [Example 60, (1α,2β,3β,4α)-1,2-Di[N-(4-phenoxybenzyl)-N-(ethoxycarbonylethyl)aminocarbonyl]cyclobutane-3,4-dicarboxylic acid]  65%
7. CSCCN(Cc1ccc(Oc2ccccc2)cc1)C(=O)C1C(C(=O)O)C(C(=O)O)C1C(=O)N(CCSC)Cc1ccc(Oc2ccccc2)cc1 (stereo not drawn) [Example 41B, (1α,2β,3β,4α)-1,2-Di[N-(2-methylthioethyl)-N-(4-phenoxybenzyl)aminocarbonyl]cyclobutane-3,4-dicarboxylic acid]  72%
8. O=C(O)C1C(C(=O)O)C(C(=O)N(Cc2ccc(Oc3ccccc3)cc2)C2CCC2)C1C(=O)N(Cc1ccc(Oc2ccccc2)cc1)C1CCC1 (stereo not drawn) [Example 48, (1α,2β,3β,4α)-1,2-Di[N-cyclobutyl-N-(4-phenoxybenzyl)aminocarbonyl]cyclobutane-3,4-dicarboxylic acid]  79%
9. CCSCCN(Cc1ccc(Oc2ccccc2)cc1)C(=O)C1C(C(=O)O)C(C(=O)O)C1C(=O)N(CCSCC)Cc1ccc(Oc2ccccc2)cc1 (stereo not drawn) [Example 42, (1α,2β,3β,4α)-1,2-Di[N-(2-ethylthioethyl)-N-(4-phenoxybenzyl)aminocarbonyl]cyclobutane-3,4-dicarboxylic acid]  81%
